According to patent US10513529B2, “1,2,4-triazolo-[3,4-b]-1,3,4-thiadiazole derivatives” (GALENICA S.A., priority 2016, dated 2019):
Values joined by “and” are separate entries in the source; they are usually repeats but may differ in a detail not shown here. Equal entries are not always repeated. One block for each molecule: values may come before it.

Assays:
[1] = tested on: T-47D human breast cancer cell line; experiment: MTT cytostatic-cytotoxic activity, T-47D; assay type: cell-based; details: 48 h treatment; for IC50: kills 50% of the cells
[2] = tested on: A-549 human lung carcinoma cell line; experiment: MTT cytostatic-cytotoxic activity, A-549; assay type: cell-based; details: for IC50: kills 50% of the cells
[3] = tested on: UWB1.289 + BRCA1 human ovarian cancer cell line; experiment: MTT cytostatic-cytotoxic activity, UWB1.289+BRCA1; assay type: cell-based; details: for IC50: kills 50% of the cells
Description: Human ovarian adenocarcinoma cells, derived from UBWB1,289, in which the presence of the BRCA1 gene has been restored. […] They are not susceptible to ionizing radiation and radioimmune chemical agents (e.g., alkylating agents). Also, UWB1.289 cells have mutated the p53 tumor suppressor gene, and are positive for the expression of cytokeratin 7 (CK-7), calretinin and Wilms' tumor protein (WT).
(§1) All cancer cell lines are stored in a liquid nitrogen tank in 2.5 ml cryovials (Corning-Costar, Cambridge, Mass.). DMSO (dimethylsulfoxide) act as a cryoprotectant and is added to prevent the formation of ice crystals which may lyse the cells. The Cells were grown as monolayer cultures in T-75 flasks (Corning-Costar, Cambridge, Mass.) and maintained at 37° C. in 5% CO2 incubator & 100% relative humidity. The cultures medium used are McCoy's 5a Medium, supplemented with 10% fetal bovine serum (FBS, Gibco) and 1% antibiotics (100 IU/ml penicillin/100 µg/ml streptomycin), sterilized by filtration (Corning-Costar filter, diameter 0.2 μm, RPMI-1640 and 50% RPMI-1640 (Catalog No 30-2001) plus 50% Mammary Epithelial Growth Medium (MEGM), supplemented with 10% fetal bovine serum (FBS, Gibco) and 1% antibiotics (100 IU/ml penicillin/100 μg/ml streptomycin). The passage is performed every 3-4 to days as follows: Cells are washed with sterile PBS (Phosphate buffered saline): 8 g/l NaCl, 0,2 g/l KCl, 1,15 g/l Na2HPO4καl 0,2 g/l KH2PO4. pH:7,4), add 2-3 ml 0.05% trypsin (Gibco 1:250) and 0.02% EDTA to cover the monolayer and incubate the flask at 3TC for 5-10 minutes. Trypsin-EDTA, is used mainly to detach the cells from the flask and prepare a single cell suspension. Finally, the number of cells can be determined by direct counting using a Neubauer chamber and cell viability is determined by staining the cells with trypan blue.
(§2) In the experimental study the in vitro effect of the compound type (I) was evaluated against ovarian cancer cell lines UWB1.289, UWB1.289+BRCA1 Kai SKOV-3.The cells were plated in 96-well plate (MTP) at a density of 1×10^4cells/m1 per well and maintained for 72 h at 3TC in a 5% CO2 incubator and grown as monolayers. The selection of the initial number of cells was made according to the rate of proliferation of the cell line, in order the cells throughout the experiment are in an exponential (log) growth phase. After 24 hours, cells were treated with 1-100 μmol/l of the tested compounds for 48 h. Experiments were carried out using triplicate wells. The viability of cultured cells was estimated by an (3-(4,5-imethylthiazol-2-yl)-2,5-diphenyltetrazolium bromide (MTT) metabolic assay as described previously (Finlay G J, Wilson W R and Baguley B C: Comparison of in vitro activity of cytotoxic drugs towards human carcinoma and leukaemia cell lines. Eur J Cancer Clin Oncol 22: 655-662, 1986; Alley M C, Scudiero D A, Monks A, Hursey M L, Czerwinski M J, Fine D L, et al. Feasibility of drug screening with panels of human tumor cell lines using a microculture tetrazolium assay. Cancer Res 1988; 48:589-601). MTT (Sigma, St Louis, Mo., USA) was dissolved in PBS in a concentration of 5 mg/ml, filter sterilized, and stored at 4° C. MTT (50 μl of stock solution) was added to each culture and incubated for 3 h at 3TC to allow metabolization. Formazan crystals were solubilized by DMSO (100 μl). Absorbance of the converted dye was measured at a wavelength of 540nm on ELISA reader (BioTek, Winooski, Vt., USA).
(§3) GI50: The mean concentration that causes 50% inhibition of cell growth (Growth Inhibition 50%). The calculation of the value is based on the formula: (Tt72x)−(Ct24)/(Ct72)-(Ct24)×100=50
(§4) TGI: The mean concentration that causes 100% inhibition of cell growth (Total Growth Inhibition). The value is calculated according to the formula: (Tt72x)−(Ct24)/(Ct72)−(Ct24)×100=0
(§5) IC50: The mean concentration that kills 50% of the cells (Inhibition Concentration 50%). The value is calculated according to the formula: (Tt72x)−(Ct24)/(Ct24)×100=[…]

[4] = tested on: MCF-7 human breast cancer cell line; experiment: MTT cytostatic-cytotoxic activity, MCF-7; assay type: cell-based; details: for IC50: kills 50% of the cells
[5] = tested on: OVCAR-3 human ovarian cancer cell line; experiment: MTT cytostatic-cytotoxic activity, OVCAR-3; assay type: cell-based; details: OVCAR-3, 48 h treatment; for IC50: kills 50% of the cells
Description: (§6) SKOV-3 (SKOV-3) (ATCC HTB 77) and OVCAR-3 (ATCC® HTB-161™)
(§7) Human ovarian adenocarcinoma cells, which are grown easily in monolayer culture with epithelial-like morphology. SKOV-3 are resistant to tumor necrosis factor (TNF) and to other cytotoxic drugs such as cisplatin, and adriamycin, while OVCAR-3 are resistant to adriamycin, cisplatin and melphalan. These cell lines express androgens, estrogens and progesterone receptors. When SKOV-3 or OVCAR-3 cells are subcutaneously implanted in nude mice, SCID mice, a moderately differentiated tumor develops, and the resulting model resembles primary ovarian adenocarcinoma in humans.
as §1, §2, §3
(§8) TGI: The mean concentration that causes 100% inhibition of cell growth (Total Growth Inhibition). […]

[6] = tested on: PC-3 human hormone-resistant prostate cancer cell line; experiment: MTT cytostatic-cytotoxic activity, PC-3; assay type: cell-based; details: PC-3, 48 h treatment; for IC50: kills 50% of the cells
[7] = tested on: MOLT-4 human acute T-leukemia cell line; experiment: MTT cytostatic-cytotoxic activity, MOLT-4; assay type: cell-based; details: MOLT-4, 48 h treatment; for IC50: kills 50% of the cells
[8] = tested on: SKOV-3 human ovarian cancer cell line; experiment: MTT cytostatic-cytotoxic activity, SKOV-3; assay type: cell-based; details: for IC50: kills 50% of the cells
Description: as §6, §7, §1, §2, §3, §8

[9] = tested on: UWB1.289 human ovarian cancer cell line (mutant BRCA1); experiment: MTT cytostatic-cytotoxic activity, UWB1.289; assay type: cell-based; details: for IC50: kills 50% of the cells
Description: Also, UWB1.289 cells have mutated the p53 tumor suppressor gene and positive Wilms' tumor protein (WT) expression, have no functional BRCA1 gene and are positive for the expression of cytokeratin 7 (CK-7), calretinin and Wilms' tumor protein (WT). Finally they are sensitive to ionizing radiation.
as §1, §2, §3, §4, §5

C57BI/6 mice = experiment: in vivo; details: i.p., acute toxicity
Description: The acute toxicity of the compounds was assessed from lethality by testing different concentrations, starting at 100mg/kg. […] For intraperitoneal (i.p.) treatment, stock solutions of the tested compounds were prepared immediately before use. They were suspended in corn oil in the desired concentration following initial dissolution in 10% dimethylsulfoxide (DMSO). C57BI/6 male and female were used for toxicity studies. Mice were kept under conditions of constant temperature and humidity in sterile cages with water and food.

[10] = Homo sapiens, A549, A-549, 48 h treatment
[11] = Homo sapiens, UWB1289, UWB1.289+BRCA1, 48 h treatment
[12] = Homo sapiens, SK-OV-3, SKOV-3, 48 h treatment

melting point: 237 to 239 °C
Structure (SMILES): COc1cc(Cc2nnc3sc(-c4cccc(Cl)c4)nn23)c(S(=O)(=O)N(C)C)cc1OC [TS22, 3-[2-(N,N-dimethylsulfamoyl)-4,5-dimethoxybenzyl]-6-(3-chlorophenyl)-1,2,4-triazolo[3,4-b]-1,3,4-thiazole]
GI50 [1]: 60 µM
TGI [1]: 97 µM and 100 µM
GI50 ([1]; Homo sapiens, T47D, 48 h): 48 µM
IC50 ([1]; Homo sapiens, T47D): > 100 µM
TGI ([2]; A-549, 48 h treatment): 95 µM
GI50 [2, 10]: 45 µM
IC50 [2, 10]: > 100 µM
GI50 [3, 11]: 16 µM
IC50 [3, 11]: > 100 µM
TGI ([3]; UWB1.289+BRCA1, 48 h treatment): >100 µM
IC50 ([4]; Homo sapiens, MCF7, MCF-7, 48 h treatment): > 100 µM
TGI ([4]; MCF-7, 48 h treatment): 90 µM and >100 µM
GI50 ([5]; Homo sapiens): 90 µM
IC50 ([5]; Homo sapiens): > 100 µM
TGI [5]: >100 µM
GI50 ([6]; Homo sapiens): > 100 µM
IC50 ([6]; Homo sapiens): > 100 µM
TGI [6]: >100 µM
GI50 ([7]; Homo sapiens): 72 µM
IC50 ([7]; Homo sapiens): > 100 µM
TGI [7]: >100 µM
GI50 [8, 12]: 60 µM
IC50 [8, 12]: > 100 µM
TGI ([8]; SKOV-3, 48 h treatment): 100 µM
IC50 ([9]; Homo sapiens, UWB1289, UWB1.289, 48 h treatment): > 100 µM
TGI ([9]; UWB1.289, 48 h treatment): >100 µM

Structure (SMILES): COc1cc(Cc2nnc3sc(CC=Cc4ccccc4)nn23)c(S(=O)(=O)N(C)C)cc1OC [TS53, 3-[2-(N,N-dimethylsulfamoyl)-4,5-dimethoxybenzyl]-6-cinnamyl-1,2,4-triazolo[3,4-b]-1,3,4-thiazole]
GI50 [1]: 8 µM
TGI [1]: 37 µM
IC50 [1]: > 100 µM
GI50 ([2]; A-549, 48 h treatment): 9 µM
TGI ([2]; A-549, 48 h treatment): 24 µM
IC50 ([2]; A-549, 48 h treatment): 58 µM
GI50 ([3]; UWB1.289+BRCA1, 48 h treatment): 12 µM
TGI ([3]; UWB1.289+BRCA1, 48 h treatment): 28 µM
IC50 ([3]; UWB1.289+BRCA1, 48 h treatment): 42 µM
GI50 ([4]; MCF-7, 48 h treatment): 15 µM
TGI ([4]; MCF-7, 48 h treatment): 45 µM
IC50 ([4]; MCF-7, 48 h treatment): > 100 µM
GI50 [5]: 5 µM
TGI [5]: 12 µM
IC50 [5]: 25 µM
GI50 [6]: 12 µM
TGI [6]: 31 µM
IC50 [6]: 85 µM
GI50 [7]: 4 µM
TGI [7]: 21 µM
IC50 [7]: 36 µM
GI50 ([8]; SKOV-3, 48 h treatment): 8 µM
TGI ([8]; SKOV-3, 48 h treatment): 16 µM
IC50 ([8]; SKOV-3, 48 h treatment): 32 µM
GI50 ([9]; UWB1.289, 48 h treatment): 12 µM
TGI ([9]; UWB1.289, 48 h treatment): 56 µM
IC50 ([9]; UWB1.289, 48 h treatment): > 100 µM
LD10 (C57BI/6 mice): >500 mg/kg
LD50 (C57BI/6 mice): 375 mg/kg

Structure (SMILES): COc1cc(Cc2nnc3sc(-c4ccccn4)nn23)c(S(=O)(=O)N(C)C)cc1OC [TS66]
GI50 [1]: > 100 µM
TGI [1]: >100 µM
IC50 [1]: > 100 µM
GI50 ([2]; A-549, 48 h treatment): > 100 µM
TGI ([2]; A-549, 48 h treatment): >100 µM
IC50 ([2]; A-549, 48 h treatment): > 100 µM
GI50 ([3]; UWB1.289+BRCA1, 48 h treatment): > 100 µM
TGI ([3]; UWB1.289+BRCA1, 48 h treatment): >100 µM
IC50 ([3]; UWB1.289+BRCA1, 48 h treatment): > 100 µM
GI50 ([4]; MCF-7, 48 h treatment): > 100 µM
TGI ([4]; MCF-7, 48 h treatment): >100 µM
IC50 ([4]; MCF-7, 48 h treatment): > 100 µM
GI50 [5]: 24 µM
TGI [5]: >100 µM
IC50 [5]: > 100 µM
GI50 [6]: > 100 µM
TGI [6]: >100 µM
IC50 [6]: > 100 µM
GI50 [7]: 85 µM
TGI [7]: >100 µM
IC50 [7]: > 100 µM
GI50 ([8]; SKOV-3, 48 h treatment): 20 µM
TGI ([8]; SKOV-3, 48 h treatment): >100 µM
IC50 ([8]; SKOV-3, 48 h treatment): > 100 µM
GI50 ([9]; UWB1.289, 48 h treatment): > 100 µM
TGI ([9]; UWB1.289, 48 h treatment): >100 µM
IC50 ([9]; UWB1.289, 48 h treatment): > 100 µM
LD10 (C57BI/6 mice): >500 mg/kg
LD50 (C57BI/6 mice): >500 mg/kg
